Type in all cases: cell-based
For one experiment, the target named is T1, G171F K2P2.1 (TREK-1) (Mus musculus, UniProt P97438, G186F).
T1 construct: expressed in transfected cells; host or cells: Xenopus laevis oocytes injected with mRNA
T1 sequence (P97438 1-411 isoform P97438-2 G171F): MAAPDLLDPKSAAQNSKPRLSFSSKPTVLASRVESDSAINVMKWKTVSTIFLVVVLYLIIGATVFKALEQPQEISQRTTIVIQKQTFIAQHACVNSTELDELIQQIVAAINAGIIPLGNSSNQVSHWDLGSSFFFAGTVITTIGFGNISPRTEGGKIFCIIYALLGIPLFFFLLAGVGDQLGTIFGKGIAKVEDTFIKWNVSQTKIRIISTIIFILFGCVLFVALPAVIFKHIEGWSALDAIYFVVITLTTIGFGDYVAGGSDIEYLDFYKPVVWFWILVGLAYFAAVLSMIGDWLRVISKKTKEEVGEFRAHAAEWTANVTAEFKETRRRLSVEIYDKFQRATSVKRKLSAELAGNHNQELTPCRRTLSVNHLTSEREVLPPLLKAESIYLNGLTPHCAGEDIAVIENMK
The experiment in a line: TEVC in Xenopus oocytes, attenuated channels. The settings on record: 20 μM; sequential addition of ML335, CAT335, BL-1249; 0 mV. An excerpt:
(§1) Mouse K2P2.1 (TREK-1) (Genbank accession number: NP_034737.2), mouse K2P10.1 (TREK-2) (NM_001316665.1), mouse K2P4.1 (TRAAK) (NM_008431.3), human K2P4.1 (TRAAK) (NM_033310.2) and mouse K2P18.1(TRESK) (NM_207261.3) were used for this study. Point mutations were introduced by site-directed mutagenesis using custom primers and confirmed by sequencing before use. For studies using Xenopus oocytes, K2P channels were subcloned into a previously reported pGEMHE/pMO vector (46). For expression in HEK293 cells, mouse K2P2.1 (TREK-1) and mutants were expressed from a previously described pIRES2-EGFP vector in HEK293 cells (46,47). K2P2.1 (TREK-1) tandems were constructed by connecting the open reading frames for the individual subunits with a linker encoding the […] (SEQ ID NO: 19) sequence. Tandems used for HEK293 cells included an N-terminal HA tag ([…] (SEQ ID NO: 20)) on the first subunit.
(§2) Xenopus laevis oocytes were harvested according to UCSF IACUC Protocol AN129690 and digested using collagenase (Worthington Biochemical Corporation, #LS004183, 0.8-1.0 mg/mL) in Ca^21-free ND96 (96 mM NaCl, 2 mM KCl, 3.8 mM MgCl2, 5 mM HEPES pH 7.4) immediately post-harvest, as previously reported (31,33). Oocytes were maintained at 18° C. in ND96 (96 mM NaCl, 2 mM KCl, 1.8 mM CaCl2, 2 mM MgCl2, 5 mM HEPES pH 7.4) supplemented with antibiotics (100 units mL^−1 penicillin, 100 μg mL^−1 streptomycin, 50 μg mL^−1 gentimycin) and used for experiments within one week of harvest.
(§3) Defolliculated stage V-VI oocytes were microinjected with 0.5-36 ng mRNA and currents were recorded within 16-48 h hours of injection.
(§4) For recordings, oocytes were impaled with borosilicate recording microelectrodes (0.4-2.0 MΩ resistance) backfilled with 3 M KCl and were subjected to constant perfusion of ND96 at a rate of 3 ml min^−1. Recording solutions containing K2P activators were prepared immediately prior to use from DMSO stocks (20-100 mM), with final DMSO concentrations of 0.1%. Currents were evoked from a −80 mV holding potential followed by a 300 ms ramp from −150 mV to +50 mV. Data were recorded using a GeneClamp 500B amplifier (MDS Analytical Technologies) controlled by pCLAMP8 software (Molecular Devices), and digitized at 1 kHz using Digidata 1332 Å digitizer (MDS Analytical Technologies). For each recording, control solution (ND96) was perfused over a single oocyte until current was stable before switching to solutions containing the test compounds at various concentrations. Representative traces and dose response plots were generated in GraphPad Prism 9.

For the next experiment, the target named is T2, A286F K2P2.1 (TREK-1) (Mus musculus, UniProt P97438, A301F).
T2 construct: expressed in transfected cells; host or cells: Xenopus laevis oocytes injected with mRNA
T2 sequence (P97438 1-411 isoform P97438-2 A286F): T1 sequence (P97438 1-411 isoform P97438-2 G171F) with F171G, A286F
The experiment is described as follows: TEVC in Xenopus oocytes, attenuated channels. The settings on record: 20 μM; sequential addition of ML335, CAT335, BL-1249; 0 mV.
Text: as §1, §2, §3, §4

Experiment [1] addresses T3, TREK-1^CG* (K2P2.1 (TREK-1) S131C) (Mus musculus, UniProt P97438, S146C).
T3 construct: expressed in transfected cells; host or cells: Xenopus laevis oocytes injected with mRNA
T3 sequence (P97438 1-411 isoform P97438-2 S131C): T1 sequence (P97438 1-411 isoform P97438-2 G171F) with S131C, F171G
The experiment in a line: TEVC in Xenopus oocytes. The settings on record: for Reversibility of activation on washout: 20 μM, Xenopus oocytes.
Text: as §1, §2, §3, §4

The next experiment has as its system K2P4.1 (TRAAK)^CG*. The experiment in a line: TEVC in Xenopus oocytes. The settings on record: 20 μM.
Text: as §1, §2, §3, §4

The structures appear in SMILES notation. Where a chain is given by its changes, count along the chain named.

For `c1ccc(-c2nn[nH]n2)c(Nc2cccc3c2CCCC3)c1` [BL-1249, reference compound], the “Fold-activation (I activator/I control)” value at G171F K2P2.1 (TREK-1) was 3.8±0.5 fold; at A286F K2P2.1 (TREK-1), 19.4±1.3 fold.
`O=C(NCc1ccc(Cl)cc1Cl)c1ccc(N2C(=O)C=CC2=O)cc1` [CAT335]: the “Fold-activation (I activator/I control)” value on G171F K2P2.1 (TREK-1) is “insensitive”; on A286F K2P2.1 (TREK-1), “insensitive”; in the experiment with K2P4.1 (TRAAK)^CG* (after 2 min), 4.2±0.6 fold; in the experiment on K2P4.1 (TRAAK)^CG* (longer application (6 min) to approach maximal activation), 11±1 fold. In addition, the “Reversibility of activation on washout” value in experiment [1] is listed as “irreversible”. Besides, the Reversibility of activation result in the experiment with K2P4.1 (TRAAK)^CG* (Xenopus oocytes) is given as “irreversibly activated”.
For `CS(=O)(=O)Nc1ccc(C(=O)NCc2ccc(Cl)cc2Cl)cc1` [ML335, reference compound], the “Fold-activation (I activator/I control)” value was 1-1.8 fold at G171F K2P2.1 (TREK-1), 1-1.8 fold at A286F K2P2.1 (TREK-1) and 1.9±0.1 fold with K2P4.1 (TRAAK)^CG* (after 2 min). Also, the “Reversibility of activation on washout” value in experiment [1] is reported as “immediate reversal”. Moreover, in experiment [1] (TEVC at 0 mV), the “Emax (IML335/Icontrol)” value is recorded as 9.6±0.8 fold activation. Besides, in experiment [1] (TEVC at 0 mV, normalized to initial currents), the EC50 was found to be 18 ± 4 µM.
